Measured values published in patent publication US20260137807A1, “COMPOSITIONS AND METHODS FOR DELIVERING A MACROMOLECULE TO A CELL” (AstraZeneca AB, priority 2022, published 2026).

Assays:
HeLa Luc705 cells = experiment: Splice switching activity assay (Luc705 luciferase reporter), Example 4A; format: cell-based
Source text: (§1) HeLa Luc705 and Huh7 Luc705 cells were used to screen and characterize the SMC generated in Example 2 for their ability to increase levels of an SSO-induced splice variant by co-treatment of the cells with the SSO and SMC. The Luc705 reporter construct was used for quantitation of luciferase protein produced as a result of functional SSO delivery. (Kang et al. (1998) Biochemistry, 37(18):6235-6239; Rocha et al. (2016) Four Novel Splice-Switch Reporter Cell Lines: Distinct Impact of Oligonucleotide Chemistry and Delivery Vector on Biological Activity. Nucleic Acid Ther. 26(6):381). Briefly, a plasmid carrying the luciferase coding sequence interrupted by an insertion of intron 2 from β-globin pre-mRNA carrying a cryptic splice site was stably transfected into cells. Unless the aberrant slice site was masked by an antisense oligonucleotide, the pre-mRNA of luciferase was improperly processed.
(§2) HeLa Luc705 and Huh7 Luc705 cells were seeded in 96-well plates at 10,000 cells per well in growth media containing 1 μM Luc705-SSO and incubated to allow adherence and oligo internalization. After 24 hours, 10 μl of SMC diluted in Growth Media (DMEM+10% FBS) was added into each well. After 2 hours, media was removed from the wells and replaced with fresh growth media for 4 hours to allow for translation of the variant proteins. The media was then removed, and cells were lysed with 0.1% Triton-PBS.
(§3) To detect luciferase activity, 30 μL of cell lysate was transferred to white-walled 96-well plates. Luciferase intensity in each well was measured using a GloMax® 96 Microplate Luminometer machine (Promega) following auto-injection of 25 μL Luciferin substrate (Firefly Luciferase Assay System: Promega) per well. Photon measurements were acquired for 10 seconds, starting 2 seconds after injection.
(§4) To determine whether AZ4800 (Compound 2, FIG. 1B) and SSO must be present in the cell media simultaneously for Compound 2 to produce its synergistic effects, the treatment plan was modified from the UNC2383 treatment plan detailed by Wang et al. (2017) ACS Chem. Biol. 12(8):1999-2007 to include a 24 hour pre-treatment with SSO, followed by the addition of Compound 2 for two hours, followed by the removal of SSO and Compound 2, and finally a 4-hour protein translation period (FIG. 10).

Huh7 Luc705 cells = experiment: as above; format: cell-based
Source text: as §1, §2, §3, §4

MALAT1 mRNA = experiment: MALAT1 knockdown by gapmer, real-time PCR; format: cell-based, mouse; settings: 2 μM AZ3327 with 2 μM gapmer, N2A cells, FIG. 28
Description: N2A cells were cultured in Dulbecco's modified eagle medium (Gibco, 31,966) containing 10% fetal bovine serum (Gibco, 10,270) and were maintained at 37° C. in a humidified atmosphere containing 5% CO2, 21% O2.
For knockdown analysis of the gapmers, 24-well plates 50,000 N2A cells in 500 μL total volume of media per well. Twenty-four hours later, the cells were treated with 2 μM MALAT1-targeting gapmer oligonucleotide having the sequence GM5CAttm5ctaatagm5cAGM5C, where m5c is 5-methylcytidine and capital letters are LNA nucleosides (SEQ ID NO:4) (Oligo Only), 2 μM MALA T1-targeting gapmer oligonucleotide and simultaneously 2 μM AZ3327 (2 μM AZ3327), or Lipofectamine-complexed MALAT1 Oligonucleotide at 200 nM (LF2000). All treatments were performed in biological triplicates. […] RNA concentration was measured via Nanodrop and cDNA was synthesized with High Capacity cDNA Reverse Transcription kit as per manufacturer's instructions (ThermoFisher Scientific, 4368814).
Real-time PCR reactions were run on QuantStudio 7 Flex Real-Time PCR System (Applied Biosystems) using MALAT1 TaqMan assays (mouse Mm01227912, Applied Biosystems) following the manufacturer's instructions. […] The absolute mRNA expression levels for MALAT1 were calculated by linear regression fitting the PCR product to a standard curve. […]

Compound | increase in SSO activity (HeLa Luc705 cells; 1 μM SSO, 10, 5 or 1 μM compound for 2 hours, FIG. 2A) | increase in functional SSO activity (HeLa Luc705 cells; 5 μM compound, 1 μM SSO or 100 nM SSO, FIG. 2B) | SSO activity, preload only (HeLa Luc705 cells; SSO only pre-treated, removed when compound added, FIG. 11A) | increase in SSO activity with lengthened pre-treatment (HeLa Luc705 cells; SSO pre-treatment 48 hours instead of 24, FIG. 12A) | increase in SSO activity (HeLa Luc705 cells; co-treatment up to 5 μM, plateauing after 2 hours, FIG. 11C) [fold] | SSO activity without the pre-treating step (HeLa Luc705 cells; no pre-load, FIG. 13A) | increase in SSO activity with lengthened pre-treatment (Huh7 Luc705 cells; SSO pre-treatment 48 hours instead of 24, FIG. 12B) | SSO activity without the pre-treating step (Huh7 Luc705 cells; no pre-load, FIG. 13B) | knockdown of MALAT1 mRNA expression as compared to oligo alone (MALAT1 mRNA)
COc1nn(C2CCNCC2)cc1Nc1ncc(Cl)c(-n2ccc3c(C#N)cccc32)n1 [Compound 2] | substantially higher increase in SSO activity than UNC2383 | increase in activity | no activity was seen | more pronounced | 100 | significant activity was observed | more pronounced | significant activity was observed | 
COc1nn(C2CCNCC2)cc1Nc1ncc(F)c(-n2ccc3c(C#N)cccc32)n1 [Compound 4] |  |  |  |  |  |  |  |  | enhanced knockdown of MALAT1 mRNA expression
